Measurements reported in US20120053119A1, “THERAPEUTIC METHOD FOR INCREASING PANCREATIC BETA CELL MASS” (priority 2009, published 2012).

Legend:
Format in all cases: cell-based
INS-1 cells = experiment: ATP-lite cell viability assay, glucose toxicity; conditions: 25 mM glucose, SDF-1 added day 0, 2, 4, read day 6
Protocol: FIG. 34. […] For bars 3-8, SDF-1 was added at the indicated concentrations to high glucose concentration well plates at day 0, 2, 4. Cell viability was measured at day 6. N=4.
SDF-1 was added at various concentrations (0.1 nM, 0.25 nM, […], 1 nM, 2.5 nM, and 5 nM) to high glucose concentration well plates at day 0, 2, 4. Cell viability was measured at day 6, using the ATP-lite cell viability assay (PerkinElmer, Boston, Mass.).

human islets = experiment: SDF-1 mRNA by QRT-PCR in human islets ex vivo; conditions: 4 hours; SDF-1 10 nM or 50 nM; two cytokine mixtures
Protocol: FIG. 29. […] 50 human islets were treated with control, cytokine mixture or SDF-1 for 4 hr, mRNA was then extracted and QRT-PCR was performed. Cytokines 1: 2 ng/ml IL-1beta, 10 ng/ml TNF-alpha, 10 ng/ml IFN-gamma. Cytokines 2: 10 ng/ml IL-1beta, 50 ng/ml TNF-alpha, 50 ng/ml IFN-gamma.
Groups of 50 human islet cells were treated with one of vehicle control, two different cytokine mixtures (Cytokines 1: 2 ng/ml IL-1beta, 10 ng/ml TNF-alpha, 10 ng/ml IFN-gamma; Cytokines 2: 10 ng/ml IL-1beta, 50 ng/ml TNF-alpha, 50 ng/ml IFN-gamma), or SDF-1 at one of two different concentrations (10 nM or 50 nM) for 4 hours. SDF-1 mRNA was then extracted and QRT-PCR was performed.

[1] = system: prohormone convertase PC1/3; experiment: PC1/3 expression by QPCR in alphaTC-1 cells; conditions: by one hour after addition of SDF-1, QPCR
Description: FIG. 19. […] Determined by QPCR. High priority experiments planned are to examine PC1/3 protein expression in isolated mouse islets using Western immunoblot, immunocytochemistry, and bioassays for active PC 1/3.

MIN6 cells = experiment: Thapsigargin-induced apoptosis, Western immunoblot of cleaved caspase-3 and cleaved PARP; conditions: SDF-1 10 nM with thapsigargin 1 microM, 16 h
Protocol: FIG. 6. Inhibition of apoptosis by SDF-1 in INS-1 and MIN-6 cells is reversed by knock-down of betacatenin. A. Western blot analysis of extracts from MIN6 cells that were mock treated, thapsigargin-treated (1 μM) and/or siRNA transfected (0.25 mg/ml), by using anti-serum against cleaved caspase-3 (upper panel), anti-serum against cleaved PARP (middle panel) and actin antibody (lower panel) as a loading control. B. Caspase-3 activity (fluorescence/mg proteinx105) of INS-1 or MIN6 cells mock treated, thapsigargin-treated (1 μM) and/or siRNA transfected (0.25 mg/ml). Results are presented as mean±SD for n=3 independent experiments, All values are relative to the first (leftmost) bar. […] Quantification of apoptotic cells is expressed as percent apoptotic cells relative to the total cells counted (lower left panel). […]
Thapsigargin-induced apoptosis in INS-1 or MIN6 cells For western immuoblot assay (Cell Signaling), MIN6 cells were seeded into 6 well plates then treated with 1 microM thapsigargin or DMSO control for 16 h and apoptotic activity was measured by Western immunoblotting using antisera specific for cleaved (active) caspase-3 (Cell signaling #9661) and cleaved (active) PARP (Cell signaling #9548). For caspase-3 assay, INS-1 cells or MIN-6 cells in 24-well plates were treated with 1 microM thapsigargin or DMSO for 16 hand caspase-3 activity was determined (Molecular Probes). […]

alphaTC-1 cells = experiment: GLP-1 production in alphaTC-1 cells, RIA of media
Protocol: FIG. 20. […] Upper panel: AlphaTC-1 and alphaTCdeltaPC2 cells were incubated for 24 hrs and total GLP-1 secreted was measured in the media. Lower panel: AlphaTC-1 cells were treated with SDF-1 or SDF-1+exendin-4 (Exd4) for the times indicated. Media obtained from the cells was assayed with an RIA specific for the active GLP-1. The findings of increased expression of PC1/3 activity, as evidenced by the production of GLP-1. In the absence of PC2 in alphaTCdPC2 cells is consistent with the findings reported by Wideman et al from the Kieffer lab and by Webb et al in the Steiner lab. It appears that in the absence of PC2, PC13 is expressed. The appearance of GLP-1 between 1 and 4 hrs (lower panel) is consistent with the induction of PC1/3 expression shown above in […]. A most high priority in the experiments planned is to determine whether SDF-1 (and cytokines) induce the production of GLP-1 peptide in mouse islets, pending the availability of support required to do these studies.

SDF-1: small, secreted 70 amino acid peptide chemokine, SEQ ID NO: 1, ligand of CXCR4
protection of cell viability against glucose toxicity (INS-1 cells): dose-dependently protects
SDF-1 expression (mRNA) in human islets (human islets): induce SDF-1 expression
PC1/3 expression [1]: induces prohormone convertase PC1/3 expression
effect on thapsigargin-increased levels of cleaved caspase-3 and PARP (MIN6 cells): inhibited
production of processed GLP-1 peptide (alphaTC-1 cells): induces the production of processed GLP-1 peptide
